Results on one compound are retold here after patent publication US20240417687A1, “THYMIC CELLS AND METHODS OF MAKING” (Thymmune Therapeutics, Inc., priority 2021, published 2024).

The test system of this series is residual undifferentiated pluripotent cells. Put plainly: Teratoma formation after transplantation of TEP populations treated with YM155. The note with it: TEP population treated prior to transplantation versus not treated. The format is in vivo. Here is the method: An important safety issues to address in iPSC-derived cell therapy products was the possible presence of residual undifferentiated pluripotent cells in the end. Such iPSCs in the product can give rise to teratomas. […] YM155, a Survivin inhibitor and PluriSIn-1, a stearoyl-CoA desaturase inhibitor was tested.

As to `COCCn1c2c([n+](Cc3cnccn3)c1C)C(=O)c1ccccc1C2=O` [YM155], the teratomas in vivo result is reported as “smaller teratomas”.
